According to article PMC5641942 (Physiological Reports, 2017):
Entries after “also recorded” stand apart in the source; their conditions may differ. Read-outs that look alike come from different tables or passages of the source. Values belong to the compound of their own block, whether it stands above or below them.

Key:
TauT [1] = target: T1, TauT (Homo sapiens, UniProt P31641); settings: pH 7.4/7.4, 0.052 μmol/L taurine, 20 mg/mL test substance
T1 sequence (P31641 1-620): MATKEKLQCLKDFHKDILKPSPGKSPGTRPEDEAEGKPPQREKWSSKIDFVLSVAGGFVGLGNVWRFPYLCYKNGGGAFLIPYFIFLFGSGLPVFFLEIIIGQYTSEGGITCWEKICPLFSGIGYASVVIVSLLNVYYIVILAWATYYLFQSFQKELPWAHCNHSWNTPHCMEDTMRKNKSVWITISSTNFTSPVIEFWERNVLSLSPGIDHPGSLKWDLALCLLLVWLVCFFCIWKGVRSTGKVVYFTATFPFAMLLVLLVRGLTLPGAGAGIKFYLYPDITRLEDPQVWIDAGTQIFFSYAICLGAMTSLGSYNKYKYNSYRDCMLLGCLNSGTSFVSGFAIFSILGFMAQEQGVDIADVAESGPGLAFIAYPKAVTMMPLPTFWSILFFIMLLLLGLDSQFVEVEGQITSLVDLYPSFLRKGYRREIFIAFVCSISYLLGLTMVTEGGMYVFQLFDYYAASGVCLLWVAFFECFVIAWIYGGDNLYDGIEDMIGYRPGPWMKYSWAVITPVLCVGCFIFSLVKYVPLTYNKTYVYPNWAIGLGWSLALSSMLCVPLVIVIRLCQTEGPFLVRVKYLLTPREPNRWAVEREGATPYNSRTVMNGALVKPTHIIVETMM

PAT1 [2] = target: T2, PAT1 (Homo sapiens, UniProt Q7Z2H8); settings: donor pH 6.0, 100 μmol/L taurine, 20 mg/mL test substance
T2 sequence (Q7Z2H8 whole entry): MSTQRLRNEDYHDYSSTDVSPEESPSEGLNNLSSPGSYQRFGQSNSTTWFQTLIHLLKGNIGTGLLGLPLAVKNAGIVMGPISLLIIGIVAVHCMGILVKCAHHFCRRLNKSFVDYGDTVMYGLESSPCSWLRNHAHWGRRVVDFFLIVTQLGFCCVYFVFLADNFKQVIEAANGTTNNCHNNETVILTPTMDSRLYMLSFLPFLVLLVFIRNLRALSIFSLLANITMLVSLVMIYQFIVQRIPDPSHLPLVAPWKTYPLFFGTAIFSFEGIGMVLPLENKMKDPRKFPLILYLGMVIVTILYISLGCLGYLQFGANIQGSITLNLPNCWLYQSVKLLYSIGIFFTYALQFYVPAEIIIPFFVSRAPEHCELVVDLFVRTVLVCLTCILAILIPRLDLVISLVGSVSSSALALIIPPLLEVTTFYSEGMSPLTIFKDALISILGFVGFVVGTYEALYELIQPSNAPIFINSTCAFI

PAT1 and TauT = test: Taurine (52 nmol/L) uptake in Caco-2 cells at pH 6.0 in the presence of amino acids; assay type: cell-based, human; settings: pH 6.0, 0.052 μmol/L taurine
Procedure: (§5) After the 5 min incubation, the isotope‐containing buffer solution was removed and the wells were washed three times with 500 μL ice‐cold HEPES‐buffer, pH 7.4. The cells were detached using 200 μL of 0.1% Triton X‐100, and transferred to scintillation plastic vials and 2 mL of scintillation cocktail was added.

TauT [3] = target: T1, TauT; test: Taurine (52 nmol/L) uptake in Caco-2 cells at pH 7.4 in the presence of amino acids; assay type: cell-based; design: endogenous in cells; host or cells: Caco-2; settings: pH 7.4, 0.052 μmol/L taurine
Source text: […]. […] […].

PAT1 [4] = target: T3, PAT1 (Rattus norvegicus, UniProt Q924A5); test: Oral taurine pharmacokinetics with co-administered BCH or Pro and Sar; assay type: in vivo, male Sprague-Dawley rats; settings: oral 30 mg/kg taurine, 200 mg/kg BCH
T3 construct: tissue Charles River Deutschland; host or cells: intestine of living male Sprague-Dawley rats (oral dosing)
T3 sequence (Q924A5 whole entry): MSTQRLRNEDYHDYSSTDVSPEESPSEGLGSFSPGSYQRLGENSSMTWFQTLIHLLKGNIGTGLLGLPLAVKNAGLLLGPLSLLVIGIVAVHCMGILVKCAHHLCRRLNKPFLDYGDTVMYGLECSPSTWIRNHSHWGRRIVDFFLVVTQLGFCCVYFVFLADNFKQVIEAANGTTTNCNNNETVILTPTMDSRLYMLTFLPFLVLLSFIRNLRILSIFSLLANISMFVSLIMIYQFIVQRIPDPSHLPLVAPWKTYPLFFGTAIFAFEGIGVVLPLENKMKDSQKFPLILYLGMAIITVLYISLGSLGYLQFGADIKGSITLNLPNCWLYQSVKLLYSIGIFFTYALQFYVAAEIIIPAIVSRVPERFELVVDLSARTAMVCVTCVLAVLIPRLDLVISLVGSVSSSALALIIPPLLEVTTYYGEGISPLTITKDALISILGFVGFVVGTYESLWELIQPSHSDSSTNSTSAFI
Procedure: (§1) The pH was adjusted with NaOH or HCl to 7.40 ± 0.05.
(§2) The animals were acclimatized for a minimum of 5 days in groups of two and maintained on standard feed with free access to water. Prior to dosing, the animals were fasted for 16–20 h with free access to water.
(§3) Plasma was harvested immediately by 10 min of centrifugation at 4°C, 3600g (Multifuge 1 S‐R, Heraeus, Hanau, Germany) and stored in polypropylene tubes (Pony Vial, PerkinElmer, Waltham, MA, USA) at −20°C until analysed. At the end of the experiment, animals were sacrificed by spinal dislocation using a guillotine. Plasma samples were left to defrost and mixed with 4 mL of liquid scintillation cocktail. The samples were counted for 3 min on a scintillation counter from Tri‐Carb 2900TR.
Based on this V d1, volume of distribution in the central compartment 1; V d2, volume of distribution in the peripheral compartment 2; AUC, area under the curve; and K10, the elimination rate from the central department, were calculated using Phoenix® 6.3 version (Pharsight Corporation, A Certara Company, USA). […] C max and t max were found as mean values of the plasma concentration profiles within each group. […] The total clearance was calculated as dose divided by AUC.

PAT1 [5] = target: T2, PAT1; settings: pH 6.0, 100 μmol/L taurine
Procedure: as §5

TauT [6] = target: T1, TauT; settings: pH 6.0, 52 nmol/L taurine
TauT [7] = target: T1, TauT; test: Concentration-dependent taurine uptake in Caco-2 cells at pH 7.4; assay type: in vitro ADME; design: endogenous in cells; host or cells: Caco-2; settings: for K m of saturable taurine uptake: Caco-2, pH 7.4, 0.052–100 μmol/L taurine, 5 min
Procedure: Polycarbonate membranes (1.12 cm^2, 0.4 μm pore size) of TranswellTM inserts or 24-well cell culture plates (1.90 cm^2) were used as supports for cell cultivation. […] Experiments were performed 6 days after seeding the Caco-2 cells cultured on 24 wells plates or performed 13-15 days postseeding cells on TranswellTM insert. […] The culture medium was changed every 2-3 days. […] HBSS buffer consisted of in mM: […] KCl, 5.33; […] NaCl, 138; […] Nohr et al. 2014b).

[8] = Oral taurine pharmacokinetics in rats; assay type: in vivo, male Sprague-Dawley rats; settings: for AUC: read-out: AUC0‐tlast (converted); for k el: read-out: k e (converted)
Procedure: as §1, §2, §3
(§4) Based on this V d1, volume of distribution in the central compartment 1; V d2, volume of distribution in the peripheral compartment 2; AUC, area under the curve; and K10, the elimination rate from the central department, were calculated using Phoenix® 6.3 version (Pharsight Corporation, A Certara Company, USA). […] C max and t max were found as mean values of the plasma concentration profiles within each group. Area under the plasma concentration versus time profiles (AUC), an expression of total exposure, were determined with noncompartmental analysis using the linear trapezoidal rule from time zero to C max and by log linear methods from C max to the last measured plasma concentration and denoted AUC0‐tlast, k e is the first order elimination rate constant calculated as the slope from the terminal log plasma concentration time curve of individual animals. The total clearance was calculated as dose divided by AUC.

[9] = Oral taurine pharmacokinetics in rats; assay type: in vivo; settings: male, Sprague-Dawley, rat, plasma, median [Q1, Q3]
[10] = design: method as in Yu et al. 2013; settings: beagle dogs, noncompartmental analysis; ref Yu et al. 2013; cited from earlier work
[11] = design: method as in Sved et al. (2007); settings: male Sprague-Dawley rats, ref Sved et al. (2007), cited from earlier work
[12] = Intravenous taurine pharmacokinetics in rats; assay type: in vivo, male Sprague-Dawley rats; settings: for A / B / α / β: two-compartment model; for clearance / AUC(0-inf): male, Sprague-Dawley, rat, plasma; for clearance: iv
Procedure: as §1, §2, §3, §4

[13] = male, Sprague-Dawley, rat, plasma, oral 10 mg/kg
[14] = male, Sprague-Dawley, rat, plasma, oral 30 mg/kg
[15] = male, Sprague-Dawley, rat, plasma, oral 100 mg/kg
[16] = male, Sprague-Dawley, rat, plasma, oral 299 mg/kg
[17] = male, Sprague-Dawley, rat, plasma, oral 997 mg/kg

effect on absorptive (A-B) permeability of taurine (TauT [1]): did not significantly decrease | effect on absorptive (A-B) permeability of taurine (PAT1 [2]): did not alter | effect on taurine uptake (TauT [3]; 10 mmol/L test substance): not affected | effect on taurine uptake (PAT1 [5]; 10 mmol/L test substance): not affected significantly | effect on taurine uptake (PAT1 [5]; 20 mg/mL test substance): did not affect
Compound: NC1(C(=O)O)CC2CCC1C2 (stereo not drawn) [BCH, 2‐Amino‐2‐norbornanecarboxylic acid]
effect on taurine uptake (PAT1 and TauT; 10 mmol/L test substance): not affected | effect on taurine uptake (PAT1 and TauT; 20 mg/mL test substance): did not affect | effect on taurine plasma concentration versus time profile (AUC0‐tlast, t max, C max) (PAT1 [4]): similar; also recorded: did not have any significant effect

Compound: O=C(O)Cc1c[nH]cn1 [IAA, imidazole‐4‐acetic acid]
effect on taurine uptake (PAT1 and TauT; 10 mmol/L test substance): significantly inhibited | effect on taurine uptake (TauT [3]; 10 mmol/L test substance): significantly inhibited | taurine uptake (TauT [3]; 10 mmol/L test substance): approximately 10 % of the control uptake | effect on taurine uptake (PAT1 [5]; 10 mmol/L test substance): not affected significantly

effect on absorptive (A-B) permeability of taurine (TauT [1]): did not significantly decrease | effect on taurine uptake (TauT [3]; 10 mmol/L test substance): not affected
Compound: O=C(O)[C@@H]1CCCN1 [Pro, L‐proline]

effect on absorptive (A-B) permeability of taurine (TauT [1]): did not significantly decrease | effect on taurine uptake (TauT [3]; 10 mmol/L test substance): not affected | effect on taurine uptake (TauT [3]; 20 mg/mL test substance): decreased
Compound: CNCC(=O)O [Sar, sarcosine]

TauT share of carrier mediated taurine uptake (TauT [6]): 78% | V max of saturable taurine uptake (TauT [7]; Caco-2, pH 7.4): 4.6 ± 0.8 pmol/(cm^2·min) | nonsaturable component, B (TauT [7]; Caco-2, pH 7.4): 5.7e-08 ± 8e-09 cm/min | K m of saturable taurine uptake (TauT [7]): 5.6 µM | K m of saturable taurine uptake (TauT [7]; listed as taurine): 5.6 ± 2.6 µM | Cmax [8, 13]: 2 ± 0.2 µg/mL | AUC [8, 13]: 3.55 µg·h/mL | k el [8, 13]: 6.67e-05 s⁻¹ | Cmax [8, 14]: 15.7 ± 2.4 µg/mL | AUC [8, 14]: 18.6 µg·h/mL | k el [8, 14]: 0.000117 s⁻¹ | Cmax [8, 15]: 70 ± 6.5 µg/mL | AUC [8, 15]: 89.9 µg·h/mL | k el [8, 15]: 0.000167 s⁻¹ | Cmax [8, 16]: 228 ± 16 µg/mL | AUC [8, 16]: 307 µg·h/mL | k el [8, 16]: 0.000167 s⁻¹ | Cmax [8, 17]: 643 ± 81 µg/mL | Tmax ([8]; male, Sprague-Dawley, rat, plasma, oral 997 mg/kg, median [Q1, Q3]): 45 min | AUC [8, 17]: 1320 µg·h/mL | k el [8, 17]: 0.00015 s⁻¹ | AUC0‐∞/dose ([8]; oral 10 mg/kg): 21 ± 1.3 μg·min/mL pr. mg/kg | AUC0‐∞/dose ([8]; oral 30 mg/kg): 37 ± 4.5 μg·min/mL pr. mg/kg | AUC0‐∞/dose ([8]; oral 100 mg/kg): 54 ± 6.0 μg·min/mL pr. mg/kg | AUC0‐∞/dose ([8]; oral 299 mg/kg): 62 ± 6.7 μg·min/mL pr. mg/kg | AUC0‐∞/dose ([8]; oral 997 mg/kg): 79 ± 6.7 μg·min/mL pr. mg/kg | Tmax ([9]; oral 100 mg/kg): 30 min | Tmax ([9]; oral 299 mg/kg): 30 min | AUC0‐∞/dose ([12]; IV 1 mg/kg): 89 ± 18.9 μg·min/mL pr. mg/kg | K10 ([12]; IV 1 mg/kg): 0.04 ± 0.01 min⁻¹ | V d1 ([12]; IV 1 mg/kg): 0.299 ± 0.048 L/kg | V d2 ([12]; IV 1 mg/kg): 4.608 ± 0.974 L/kg | A ([12]; IV 1 mg/kg): 3.5 ± 0.5 µg/mL | B ([12]; IV 1 mg/kg): 0.12 ± 0.03 µg/mL | α ([12]; IV 1 mg/kg): 0.14 ± 0.02 min⁻¹ | β ([12]; IV 1 mg/kg): 1.9 ± 0.4 1/min *10^−3 | AUC0‐∞/dose ([12]; IV 10 mg/kg): 59 ± 19.0 μg·min/mL pr. mg/kg | K10 ([12]; IV 10 mg/kg): 0.06 ± 0.01 min⁻¹ | V d1 ([12]; IV 10 mg/kg): 0.353 ± 0.062 L/kg | V d2 ([12]; IV 10 mg/kg): 4.662 ± 1.153 L/kg | A ([12]; IV 10 mg/kg): 31.0 ± 4.2 µg/mL | B ([12]; IV 10 mg/kg): 0.89 ± 0.14 µg/mL | α ([12]; IV 10 mg/kg): 0.144 ± 0.03 min⁻¹ | β ([12]; IV 10 mg/kg): 3.0 ± 0.9 1/min *10^−3 | AUC0‐∞/dose ([12]; IV 30 mg/kg): 115 ± 39.2 μg·min/mL pr. mg/kg | K10 ([12]; IV 30 mg/kg): 0.03 ± 0.01 min⁻¹ | V d1 ([12]; IV 30 mg/kg): 0.323 ± 0.063 L/kg | V d2 ([12]; IV 30 mg/kg): 8.374 ± 4.466 L/kg | B ([12]; IV 30 mg/kg): 1.87 ± 0.45 µg/mL | α ([12]; IV 30 mg/kg): 0.07 ± 0.01 min⁻¹ | β ([12]; IV 30 mg/kg): 1.3 ± 0.6 1/min *10^−3 | clearance ([12]; 1 mg/kg, IV 1 mg/kg, read-out: CL): 11.7 ± 1.3 mL/min/kg | clearance ([12]; 10 mg/kg, IV 10 mg/kg, read-out: CL): 18.7 ± 2.54 mL/min/kg | clearance ([12]; 30 mg/kg, IV 30 mg/kg, read-out: CL): 9.4 ± 1.42 mL/min/kg | clearance ([12]; IV 1–30 mg/kg, compartmental analysis, read-out: clearance): 9 to 18 mL/min/kg | AUC(0-inf) ([12]; IV 1 mg/kg): 1.48 µg·h/mL | AUC(0-inf) ([12]; IV 10 mg/kg): 9.78 µg·h/mL | AUC(0-inf) ([12]; IV 30 mg/kg): 57.5 µg·h/mL
Compound: NCCS(=O)(=O)O [Taurine, 2‐aminoethane sulfonic acid]
clearance [10]: 3.33 mL/min/kg | AUC ([11]; oral 30 mg/kg): 236 µg·h/mL | AUC ([11]; oral 300 mg/kg): 1760 µg·h/mL
